Legend:
human mAChRM1 [1] = molecular target: T1, human mAChRM1 (Homo sapiens, UniProt P11229); experiment: mAChR M1 cell-based functional assay (calcium mobilization), positive allosteric modulator activity: increase in the EC20 acetylcholine response; details: for Emax: PAM mode; for EC50: increase in the EC20 acetylcholine response, read-out: PAM Activity Human M1 EC50
T1 construct: host or cells: CHO-K1
T1 sequence (P11229 1-460): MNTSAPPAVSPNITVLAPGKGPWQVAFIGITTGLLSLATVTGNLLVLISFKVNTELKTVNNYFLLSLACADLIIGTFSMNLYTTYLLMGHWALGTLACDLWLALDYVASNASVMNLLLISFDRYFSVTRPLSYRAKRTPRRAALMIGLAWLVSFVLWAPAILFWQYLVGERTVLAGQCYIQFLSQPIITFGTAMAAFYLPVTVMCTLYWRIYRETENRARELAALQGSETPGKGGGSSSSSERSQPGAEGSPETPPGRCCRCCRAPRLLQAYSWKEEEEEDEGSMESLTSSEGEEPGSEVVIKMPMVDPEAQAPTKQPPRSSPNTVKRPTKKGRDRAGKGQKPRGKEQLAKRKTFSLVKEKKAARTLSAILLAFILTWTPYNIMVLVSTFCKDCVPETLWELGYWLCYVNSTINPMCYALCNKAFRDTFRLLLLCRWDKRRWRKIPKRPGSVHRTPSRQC
Procedure, shortened: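 Potentiation is scored as the rise in an EC20 acetylcholine-evoked calcium signal across 11-point (1:3) compound series, fitted with a four-parameter logistic equation to give EC50 and Emax. Read-out is Fluo-4 fluorescence ratio in hM1-transfected CHO-K1 cells, measured kinetically on FDSS.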

human mAChRM1 [2] = molecular target: T1, human mAChRM1; experiment: mAChR M1 cell-based functional assay (calcium mobilization), agonist activity upon compound addition, Emax relative to acetylcholine maximum; details: for Agonist Activity Human M1 EC50 / EC50: calcium mobilization upon compound addition; for Emax: relative to the maximum for acetylcholine
Procedure, shortened: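 Emax is given as a percentage of the maximal acetylcholine response, from four-parameter curves of compound-evoked calcium mobilization. Human M1-transfected CHO-K1 cells carried Fluo-4 dye, and compound (11 concentrations, 1:3 steps) was applied at 4 s of a 300 s kinetic fluorescence recording.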

Emax (human mAChRM1 [1]) | EC50 (human mAChRM1 [1]) | Agonist Activity Human M1 EC50 (human mAChRM1 [2]) | EC50 (human mAChRM1 [2]) | Emax (human mAChRM1 [2]) | Compound
48% | ≥ 10 µM | inactive |  |  | CC(C)(O)c1cncc(-c2cc(F)c(CN3Cc4ncccc4C3=O)c(F)c2)c1 [Compound 42, 6-(2,6-difluoro-4-(5-(2-hydroxypropan-2-yl)pyridin-3-yl)benzyl)-6,7-dihydro-5H-pyrrolo[3,4-b]pyridin-5-one]
80% | 1.12 µM | inactive |  |  | C[C@@H](c1c(F)cc(-c2ccc(C(C)(C)O)c3nn(C)cc23)cc1F)N1Cc2ncccc2C1=O [Compound 98, (S)-6-(1-(2,6-difluoro-4-(7-(2-hydroxypropan-2-yl)-2-methyl-2H-indazol-4-yl)phenyl)ethyl)-6,7-dihydro-5H-pyrrolo[3,4-b]pyridin-5-one]
80% | 0.138 µM | inactive |  |  | CCC(C)(O)c1ccc(-c2cc(F)c(CN3Cc4ncccc4C3=O)c(F)c2)c2cn(C)nc12 (stereo not drawn) [Compound 82, 6-(2,6-difluoro-4-(7-(2-hydroxybutan-2-yl)-2-methyl-2H-indazol-4-yl)benzyl)-6,7-dihydro-5H-pyrrolo[3,4-b]pyridin-5-one]
85% | 1.27 µM | inactive |  |  | [2H]C1([2H])c2ncccc2C(=O)N1Cc1c(F)cc(-c2ccc(C(C)(C)O)c3nn(C)cc23)cc1N1CCC1 [Compound 151, 6-(2-(azetidin-1-yl)-6-fluoro-4-(7-(2-hydroxypropan-2-yl)-2-methyl-2H-indazol-4-yl)benzyl)-6,7-dihydro-5H-pyrrolo[3,4-b]pyridin-5-one-7,7-d2]
57% | 7.14 µM | inactive |  |  | CC(C)(O)c1ccc(-c2ccc(CN3Cc4cccnc4C3=O)cc2)cc1 [Compound 128, 6-((4′-(2-hydroxypropan-2-yl)-[1,1′-biphenyl]-4-yl)methyl)-5,6-dihydro-7H-pyrrolo[3,4-b]pyridin-7-one]
66% | 2.29 µM | inactive |  |  | CCC(O)(CC)c1ccc(-c2cc(F)c(CN3Cc4ncccc4C3=O)c(F)c2)c2cn(C)nc12 [Compound 54, 6-(2,6-difluoro-4-(7-(3-hydroxypentan-3-yl)-2-methyl-2H-indazol-4-yl)benzyl)-6,7-dihydro-5H-pyrrolo[3,4-b]pyridin-5-one]
62% | 0.145 µM |  | 3.78 µM | 12% | [2H]C1([2H])c2ncccc2C(=O)N1Cc1c(F)cc(-c2ccc(C(C)(C)O)c3nn(C([2H])([2H])[2H])cc23)cc1F [Compound 145, 6-(2,6-difluoro-4-(7-(2-hydroxypropan-2-yl)-2-(methyl-d3)-2H-indazol-4-yl)benzyl)-6,7-dihydro-5H-pyrrolo[3,4-b]pyridin-5-one-7,7-d2]
78% | 0.059 µM |  | 2.74 µM | 22% | Cn1cc2c(-c3cc(F)c(CN4Cc5ncccc5C4=O)c(F)c3)ccc(C(C)(C)O)c2n1 [Compound 1, 6-(2,6-difluoro-4-(7-(2-hydroxypropan-2-yl)-2-methyl-2H-indazol-4-yl)benzyl)-6,7-dihydro-5H-pyrrolo[3,4-b]pyridin-5-one]
80% | 0.439 µM | inactive |  |  | Cn1cc2c(-c3cc(F)c(CN4Cc5ncccc5C4=O)c(C(F)(F)F)c3)ccc(C(C)(C)O)c2n1 [Compound 76, 6-(2-fluoro-4-(7-(2-hydroxypropan-2-yl)-2-methyl-2H-indazol-4-yl)-6-(trifluoromethyl)benzyl)-6,7-dihydro-5H-pyrrolo[3,4-b]pyridin-5-one]
86% | 0.231 µM |  | ≥ 10 µM | 20% | Cn1cc2c(-c3cc(F)c(CN4Cc5cccnc5C4=O)c(Cl)c3)ccc(C(C)(C)O)c2n1 [Compound 122, 6-(2-Chloro-6-fluoro-4-(7-(2-hydroxypropan-2-yl)-2-methyl-2H-indazol-4-yl)benzyl)-5,6-dihydro-7H-pyrrolo[3,4-b]pyridin-7-one]
45% | ≥ 10 µM | inactive |  |  | CC(C)(O)c1cc(-c2ccc(CN3Cc4ncccc4C3=O)c(F)c2)c2[nH]nnc2c1 [Compound 75, 6-(2-fluoro-4-(5-(2-hydroxypropan-2-yl)-1H-benzo[d][1,2,3]triazol-7-yl)benzyl)-6,7-dihydro-5H-pyrrolo[3,4-b]pyridin-5-one]
76% | 1.31 µM |  | 9.05 µM | 60% | Cn1cc2c(-c3cc(Cl)c(CN4Cc5cccnc5C4=O)c(C4CC4)c3)ccc(C(C)(C)O)c2n1 [Compound 134, 6-(2-chloro-6-cyclopropyl-4-(7-(2-hydroxypropan-2-yl)-2-methyl-2H-indazol-4-yl)benzyl)-5,6-dihydro-7H-pyrrolo[3,4-b]pyridin-7-one]
58% | ≥ 10 µM | inactive |  |  | CC(C)(O)c1ccc(-c2ccc(CN3Cc4ncccc4C3=O)c(F)c2)c2ccccc12 [Compound 73, 6-(2-fluoro-4-(4-(2-hydroxypropan-2-yl)naphthalen-1-yl)benzyl)-6,7-dihydro-5H-pyrrolo[3,4-b]pyridin-5-one]
76% | 0.084 µM |  | 5.64 µM | 41% | Cn1cc2c(-c3cc(F)c(CN4Cc5ccncc5C4=O)c(F)c3)ccc(C(C)(C)O)c2n1 [Compound 140, 2-(2,6-difluoro-4-(7-(2-hydroxypropan-2-yl)-2-methyl-2H-indazol-4-yl)benzyl)-1,2-dihydro-3H-pyrrolo[3,4-c]pyridin-3-one]
48% | ≥ 10 µM | inactive |  |  | Cn1cc(-c2ccc(CN3Cc4ncccc4C3=O)cc2)c(C(C)(C)O)n1 [Compound 32, 6-(4-(3-(2-hydroxypropan-2-yl)-1-methyl-1H-pyrazol-4-yl)benzyl)-6,7-dihydro-5H-pyrrolo[3,4-b]pyridin-5-one]
87% | 0.065 µM |  | 8.35 µM | 33% | Cc1cc(-c2ccc(C(C)(C)O)c3nn(C)cc23)cc(F)c1CN1Cc2ncccc2C1=O [Compound 2, 6-(2-Fluoro-4-(7-(2-hydroxypropan-2-yl)-2-methyl-2H-indazol-4-yl)-6-methylbenzyl)-6,7-dihydro-5H-pyrrolo[3,4-b]pyridin-5-one]
83% | 0.116 µM |  | 2.46 µM | 20% | Cn1cc2c(-c3cc(F)c(CN4Cc5ncccc5C4=O)c(F)c3)ccc(C3(O)CCOC3)c2n1 (stereo not drawn) [Compound 90, 6-(2,6-difluoro-4-(7-(3-hydroxytetrahydrofuran-3-yl)-2-methyl-2H-indazol-4-yl)benzyl)-6,7-dihydro-5H-pyrrolo[3,4-b]pyridin-5-one]
65% | 1.44 µM | inactive |  |  | CC(C)(O)c1ccc(-c2cc(Cl)c(CN3Cc4ncccc4C3=O)c(Cl)c2)cc1 [Compound 46, 6-((3,5-dichloro-4′-(2-hydroxypropan-2-yl)-[1,1′-biphenyl]-4-yl)methyl)-6,7-dihydro-5H-pyrrolo[3,4-b]pyridin-5-one]
83% | 0.076 µM |  | 1.87 µM | 22% | [2H]C([2H])([2H])C(O)(c1ccc(-c2cc(F)c(CN3Cc4ncccc4C3=O)c(F)c2)c2cn(C)nc12)C([2H])([2H])[2H] [Compound 93, 6-(2,6-difluoro-4-(7-(2-hydroxypropan-2-yl-1,1,1,3,3,3-d6)-2-methyl-2H-indazol-4-yl)benzyl)-6,7-dihydro-5H-pyrrolo[3,4-b]pyridin-5-one]
69% | 0.181 µM |  | 5.07 µM | 11% | Cn1cc2c(-c3ccc(CN4Cc5ncccc5C4=O)c(F)c3)ccc(C(C)(C)O)c2n1 [Compound 57, 6-(2-fluoro-4-(7-(2-hydroxypropan-2-yl)-2-methyl-2H-indazol-4-yl)benzyl)-6,7-dihydro-5H-pyrrolo[3,4-b]pyridin-5-one]
79% | 0.998 µM | inactive |  |  | Cc1cc(-c2cc(C(C)(C)O)c3nn(C)cc3c2)cc(F)c1CN1Cc2cccc(F)c2C1=O [Compound 168, 7-fluoro-2-(2-fluoro-4-(7-(2-hydroxypropan-2-yl)-2-methyl-2H-indazol-5-yl)-6-methylbenzyl)isoindolin-1-one]
61% | ≥ 10 µM | inactive |  |  | Cn1ncc2c(-c3cc(F)c(CN4Cc5cccc(F)c5C4=O)c(F)c3)ccc(C(C)(C)O)c21 [Compound 157, 2-(2,6-difluoro-4-(7-(2-hydroxypropan-2-yl)-1-methyl-1H-indazol-4-yl)benzyl)-7-fluoroisoindolin-1-one]
27% | ≥ 10 µM | inactive |  |  | Cn1cc2c(-c3ccc(CN4Cc5ncccc5C4=O)nn3)ccc(C(C)(C)O)c2n1 [Compound 112, 6-((6-(7-(2-hydroxypropan-2-yl)-2-methyl-2H-indazol-4-yl)pyridazin-3-yl)methyl)-6,7-dihydro-5H-pyrrolo[3,4-b]pyridin-5-one]
